In ChEMBL document CHEMBL1131959, “Synthesis of glucuronides of multidrug resistance reversing drug MS-209” (Bioorg Med Chem Lett, 1999):
Active and inactive are the calls of the source. The calls are words filed in the database; no cut-off is given here.

Experiments:
Tumor Cell line [1] = test: Multidrug resistant(MDR) reversing activity in vitro in human tumor cells; Inactive; assay type: functional, cell-based
Tumor Cell line [2] = test: Multidrug resistant(MDR) reversing activity in vitro in human tumor cells; Active; assay type: functional, cell-based

| SMILES | Reversing activity (Tumor Cell line [1]) | Reversing activity (Tumor Cell line [2]) |
| --- | --- | --- |
| O=C(O)[C@H]1O[C@@H](O[C@@H](COc2cccc3ncccc23)CN2CCN(C(=O)C(c3ccccc3)c3ccccc3)CC2)[C@H](O)[C@@H](O)[C@@H]1O | inactive |  |
| O=C(O)[C@H]1O[C@@H](O[C@H](COc2cccc3ncccc23)CN2CCN(C(=O)C(c3ccccc3)c3ccccc3)CC2)[C@H](O)[C@@H](O)[C@@H]1O | inactive |  |
| O=C(C(c1ccccc1)c1ccccc1)N1CCN(C[C@@H](O)COc2cccc3ncccc23)CC1 |  | Active |
